# Measured values from US6344219B1, “Chinese drug composition for treatment of peptic ulcer and preparation thereof” (priority 1995, dated 2002).
# Key:
# [1] = system: ulcer induced by Histamine; experiment: Ulcer of mice induced by Histamine; format: in vivo, Mice(ICR); conditions: 200 mg/kg bid × 2 ig, Histamine 80 mg/kg ip
# Description: Forty mice, male 23±2 g, were divided into five groups, and were administrated once both in the morning and afternoon of everyday by ig. Mice were abstained to feed food for 24 hr except water, then administered Histamine 80 mg/kg, ip, after abstaining food for 8 hr were executed. Take out the stomachs and examine ulcer index using the same method as 1-1.
# [2] = system: gastric ulcer induced by Reserpine; experiment: Gastric ulcer of rats induced by Reserpine; format: in vivo, Rats(SD); conditions: 200.0 mg/kg ig once daily for three days, Reserpine 5 mg/kg sc
# Description: Fifty rats, 180±18 g, male and female half and half, were divided into five groups and were treated with drug ig once daily for three days. After abstaining food for 24 hr Reserpine 5 mg/kg was injected subcutaneously. The rats were executed by decapitation after 18 hr and the gastric ulcer was examined as the same method of 1-1.
# [3] = system: stress ulcer of rats induced by water soaking; experiment: Effect to stress ulcer (Takagi's method, water soaking); format: in vivo, Rats(SD); conditions: 100 mg/kg qd × 2
# Description: The model was established following Takagi's method. Takagi, et al., The Effects of Drugs on the production and Recovery Processes of the Stress Ulcer, 18:9-18 (1968); and Takagi et al., A New Method For The Production of Chronic Gastric Ulcer in Rats and The Effect of Several Drugs on its Healing, Japan J. Pharmacol Japan J. Pharmacol 19:418-426 (1969). Fifty rats, 159+13 g, male and female half and half, were randomly divided into five groups according to sex and weight and were administered with drugs daily twice, once both in the morning and afternoon for two days. From the beginning of the experiments, food was abstained but water was freely fed. One hour after the last administration, rats were bound on a board and were soaked in a thermostatic flowing water bath at […] for 18 hr then were executed by decapitation. Take out the stomach by abdominal section and ligate the pylorus first then inject 10 ml of 1% formaldehyde solution through cardia of stomach and ligate the cardia. After formalizing the stomach in 1% formaldehyde solution for 10 min, the stomach was cut along the greater curvature with scissor, rinse with normal saline solution for three times and absorb with filter paper, then flatten it on a glass plate and examine the degree of mucosa ulcer and count the number using magnifier. […]
# pyloric ligation ulcer = experiment: Effect to the ulcer of pyloric ligation (Shay's method); format: in vivo, Rats(SD); conditions: rats; dose 200
# Description: The experiment is conducted following Shay's method. Fifty rats, 190+20 g, male and female half and half, were randomly divided into five groups according to weight and sex and were administered as 1-1 for three days. Food was abstained but water was freely fed before 48 hr of the operation. After 2 hr of the last administration, operation of pyloric ligation was conducted then both food and water were abstained. After 48 hr the rats were executed and their gastric juice was collected for measuring the volume, and determining the free acid, total acid and pepsin following Metle's method.
# [4] = system: chronic gastric ulcer caused by acetic acid burn; experiment: Chronic gastric ulcer of rats caused by acetic acid burn (adapted Takagi's method); format: in vivo, Rats(SD); conditions: 200 mg/kg × 12 day ig qd
# Description: The experiment was conducted using adapted Takagi's method. Fifty rats, 165+15 g, male and female half and half, after abstaining food without abstaining water for 24 hr, were primary anesthetized with ether and their skin were sterilized as regular method. After abdominal section the stomach was gently pulled out. A small glass tube with 0.5 cm inner diameter and 3 cm length was inserted into the stomach near the lesser curvature stomach gland of pylorus using middle finger to resist against the opposite stomach wall. 0.1 ml acetic acid was injected into stomach through the glass tube. After 30 sec counting with stopwatch, acetic acid was sucked out and the stomach was rinsed with sterilized normal saline for three times. Remove out the glass tube and absorb the normal saline on its external surface with sterilized filter paper the stomach was put into the abdomen then sew up the wound and sterilize. The rats was randomly divided into 5 groups according to sex and weight on the second day of operation. The rats were administered with drug ig qd×12 day, after abstaining food overnight then were executed by decapitation. The ulcer volumes were measured using the method of injection ink with a micro syringe.
smiles,measurement,setting,value
"CNC(=C[N+](=O)[O-])NCCSCc1ccc(CN(C)C)o1.Cl [Ranitidine, Ranitidine hydrochloride]",rate of inhibition (%),[1],87.8%
same,ulcer index (x ± SD),[1],1.4 ± 3.5
same,rate of inhibition (%),[2],78.2%
same,ulcer index (x ± SD),[2],7.6 ± 2.0
same,rate of inhibition (%),[3],41.5%
same,ulcer index (x ± SD),[3],2.14 ± 0.46
same,ulcer index,pyloric ligation ulcer,1.22 ± 1.44
same,rate of inhibition (%),[4],50.7%
same,"ulcer volume (μl, × ± SD)",[4],1.72 ± 1.46 µL
